This is an account of results in paper PMC8534050, “Discovery of a Potent and Highly Isoform-Selective Inhibitor of the Neglected Ribosomal Protein S6 Kinase Beta 2 (S6K2)” (Cancers, 2021).

Series [1] has as its target T1, S6K2 (Homo sapiens, UniProt Q9UBS0).
T1 construct: purchased Reaction Biology Corp
The series is described as follows: HotSpot kinase assay (Reaction Biology). The format is biochemical. The settings on record: apparent IC50; five-point; compound 2 triplicate, ± standard deviation. As to the method:
The provided IC50 values were measured using the HotSpot^TM Kinase Profiling assay and conducted at Reaction Biology Corp. in their facilities in Malvern, PA, USA.

The next series addresses T2, OSR1 (Homo sapiens, UniProt O95747).
T2 construct: purchased in-house DSF (thermal shift) panel per Fedorov et al
Kind of series: DSF thermal shift assay. The format is binding. The settings on record: read-out: ΔTm. The protocol:
(§1) Differences in the melting temperature (ΔTm) were measured as described by Fedorov et al.. Purified proteins were buffered in 25 mM HEPES (pH 7.5), 500 mM NaCl and were assayed in a 384-well plate with a final protein concentration of 2 μM in 10 μL assay volume. Inhibitors were added to a final concentration of 10 μM using an ECHO 550 acoustic dispenser (Labcyte, San José, CA, USA). As a fluorescence probe, SYPRO-Orange (Molecular Probes, Eugene, OR, USA) was added in a 1:5000 dilution. Filters for excitation and emission were set to 465 nm and 590 nm, respectively. The temperature was increased from 25 °C with 3 °C/min to a final temperature of 95 °C, while scanning, using the QuantStudio5 (Applied Biosystems, Waltham, MA, USA). Data were analyzed through Boltzmann equation in the Protein Thermal Shift software (Applied Biosystems, Waltham, MA, USA). Samples were measured in technical duplicates.

For a further series, the target named is T3, PLK4 (Homo sapiens, UniProt O00444).
T3 construct: purchased in-house DSF (thermal shift) panel per Fedorov et al
The series is described as follows: DSF thermal shift assay. The series is classed as binding. The settings on record: read-out: ΔTm. The protocol: as §1

A further series addresses T4, STK39 (Homo sapiens, UniProt Q9UEW8).
T4 construct: purchased in-house DSF (thermal shift) panel per Fedorov et al; IC50 follow-up at Reaction Biology Corp
Kind of series: DSF thermal shift assay. The format is binding. The settings on record: read-out: ΔTm. As to the method: as §1

In a further series the target is T5, CAMK4 (Homo sapiens, UniProt Q16566).
T5 construct: purchased in-house DSF (thermal shift) panel per Fedorov et al
Kind of series: DSF thermal shift assay. The format is binding. The settings on record: read-out: ΔTm. The protocol:
as §1

The target in another series is T6, CAMKK2 (Homo sapiens, UniProt Q96RR4).
T6 construct: purchased in-house DSF (thermal shift) panel per Fedorov et al
T6 sequence (Q96RR4 whole entry): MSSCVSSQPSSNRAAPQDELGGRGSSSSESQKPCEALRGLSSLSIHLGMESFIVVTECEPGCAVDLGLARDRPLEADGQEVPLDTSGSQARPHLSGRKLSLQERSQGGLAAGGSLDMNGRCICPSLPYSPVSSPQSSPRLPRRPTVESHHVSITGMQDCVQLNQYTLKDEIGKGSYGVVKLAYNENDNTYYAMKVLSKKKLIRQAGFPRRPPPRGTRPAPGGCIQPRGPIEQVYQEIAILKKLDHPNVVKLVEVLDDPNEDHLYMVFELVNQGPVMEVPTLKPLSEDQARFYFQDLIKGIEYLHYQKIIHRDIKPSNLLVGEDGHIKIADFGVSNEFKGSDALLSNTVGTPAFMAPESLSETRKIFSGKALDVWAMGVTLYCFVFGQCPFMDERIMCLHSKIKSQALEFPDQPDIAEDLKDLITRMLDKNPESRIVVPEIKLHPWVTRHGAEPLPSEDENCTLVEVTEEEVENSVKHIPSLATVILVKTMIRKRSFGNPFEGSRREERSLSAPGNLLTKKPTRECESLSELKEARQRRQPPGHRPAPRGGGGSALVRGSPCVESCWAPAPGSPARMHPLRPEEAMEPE
Kind of series: DSF thermal shift assay. The settings on record: read-out: ΔTm. The series is classed as binding. As to the method: as §1

For another series, the target named is T7, MAPK13 (Homo sapiens, UniProt O15264).
T7 construct: purchased in-house DSF (thermal shift) panel per Fedorov et al
Kind of series: DSF thermal shift assay. The format is binding. The settings on record: read-out: ΔTm. As to the method:
as §1

The next series has as its target T8, SLK (Homo sapiens, UniProt Q9H2G2).
T8 construct: purchased in-house DSF (thermal shift) panel per Fedorov et al
Kind of series: DSF thermal shift assay. The series is classed as binding. The settings on record: read-out: ΔTm. The protocol: as §1

The target in the next series is T9, CDC42BPA (Homo sapiens, UniProt Q5VT25).
T9 construct: purchased in-house DSF (thermal shift) panel per Fedorov et al
T9 sequence (Q5VT25 whole entry): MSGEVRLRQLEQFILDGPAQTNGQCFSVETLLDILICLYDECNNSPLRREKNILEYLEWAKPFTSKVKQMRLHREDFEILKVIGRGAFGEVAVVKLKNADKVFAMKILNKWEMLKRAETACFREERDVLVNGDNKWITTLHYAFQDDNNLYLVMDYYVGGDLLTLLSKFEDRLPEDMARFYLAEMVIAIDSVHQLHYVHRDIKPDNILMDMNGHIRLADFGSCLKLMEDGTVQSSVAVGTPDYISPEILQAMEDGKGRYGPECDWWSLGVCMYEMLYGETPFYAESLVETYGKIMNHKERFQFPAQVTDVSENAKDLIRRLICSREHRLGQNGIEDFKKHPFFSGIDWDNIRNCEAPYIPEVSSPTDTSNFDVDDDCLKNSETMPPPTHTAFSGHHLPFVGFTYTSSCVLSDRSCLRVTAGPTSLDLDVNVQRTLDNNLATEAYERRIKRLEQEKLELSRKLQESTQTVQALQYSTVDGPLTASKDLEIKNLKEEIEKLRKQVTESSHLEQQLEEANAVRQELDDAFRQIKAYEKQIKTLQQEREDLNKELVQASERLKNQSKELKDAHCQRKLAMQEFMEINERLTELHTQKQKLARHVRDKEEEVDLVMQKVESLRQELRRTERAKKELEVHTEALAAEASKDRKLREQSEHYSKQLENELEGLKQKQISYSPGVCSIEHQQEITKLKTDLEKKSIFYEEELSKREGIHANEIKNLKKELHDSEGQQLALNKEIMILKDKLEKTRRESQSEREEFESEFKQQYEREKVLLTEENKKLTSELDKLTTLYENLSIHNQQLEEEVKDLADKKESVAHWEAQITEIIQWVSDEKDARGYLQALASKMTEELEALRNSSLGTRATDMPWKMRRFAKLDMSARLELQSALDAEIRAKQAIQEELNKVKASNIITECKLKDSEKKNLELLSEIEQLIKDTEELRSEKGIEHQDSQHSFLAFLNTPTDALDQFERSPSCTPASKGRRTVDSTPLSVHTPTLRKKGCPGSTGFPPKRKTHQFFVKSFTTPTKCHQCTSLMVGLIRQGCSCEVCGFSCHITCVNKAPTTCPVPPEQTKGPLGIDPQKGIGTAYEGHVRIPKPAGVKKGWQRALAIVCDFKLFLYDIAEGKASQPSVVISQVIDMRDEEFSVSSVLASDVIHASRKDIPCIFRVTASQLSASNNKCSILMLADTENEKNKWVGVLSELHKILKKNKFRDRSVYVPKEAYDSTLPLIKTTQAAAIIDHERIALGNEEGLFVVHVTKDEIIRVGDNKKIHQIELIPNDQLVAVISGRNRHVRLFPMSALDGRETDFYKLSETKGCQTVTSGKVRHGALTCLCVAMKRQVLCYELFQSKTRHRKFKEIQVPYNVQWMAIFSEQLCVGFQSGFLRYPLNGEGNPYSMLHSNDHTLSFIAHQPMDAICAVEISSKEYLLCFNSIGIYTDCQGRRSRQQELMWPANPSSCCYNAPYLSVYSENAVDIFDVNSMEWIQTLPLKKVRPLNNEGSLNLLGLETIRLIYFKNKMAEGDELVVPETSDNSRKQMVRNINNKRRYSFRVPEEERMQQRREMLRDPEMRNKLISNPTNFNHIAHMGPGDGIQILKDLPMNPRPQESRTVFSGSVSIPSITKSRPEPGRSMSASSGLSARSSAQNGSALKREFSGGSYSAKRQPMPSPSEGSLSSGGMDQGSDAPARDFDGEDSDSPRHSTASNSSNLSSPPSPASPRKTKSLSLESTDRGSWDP
Kind of series: DSF thermal shift assay. The series is classed as binding. The settings on record: read-out: ΔTm. As to the method:
as §1

For another series, the target named is T10, EPHA7 (Homo sapiens, UniProt Q15375).
T10 construct: purchased in-house DSF (thermal shift) panel per Fedorov et al
The series is described as follows: DSF thermal shift assay. The series is classed as binding. The settings on record: read-out: ΔTm. As to the method:
as §1

In another series the target is T11, STK3 (Homo sapiens, UniProt Q13188).
T11 construct: purchased in-house DSF (thermal shift) panel per Fedorov et al
T11 sequence (Q13188 whole entry): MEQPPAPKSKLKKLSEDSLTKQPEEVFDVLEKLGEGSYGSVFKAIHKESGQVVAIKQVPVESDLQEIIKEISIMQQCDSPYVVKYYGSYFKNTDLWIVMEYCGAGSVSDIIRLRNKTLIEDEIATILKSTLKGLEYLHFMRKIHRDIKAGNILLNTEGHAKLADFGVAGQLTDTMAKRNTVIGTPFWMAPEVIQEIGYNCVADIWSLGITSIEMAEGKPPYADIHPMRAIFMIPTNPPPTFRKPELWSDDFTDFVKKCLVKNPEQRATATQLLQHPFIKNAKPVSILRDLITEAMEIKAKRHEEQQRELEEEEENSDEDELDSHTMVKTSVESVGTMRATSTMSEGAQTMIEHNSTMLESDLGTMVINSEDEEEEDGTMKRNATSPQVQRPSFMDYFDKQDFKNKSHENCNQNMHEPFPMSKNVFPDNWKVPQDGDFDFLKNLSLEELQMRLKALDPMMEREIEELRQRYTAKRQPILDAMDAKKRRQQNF
Kind of series: DSF thermal shift assay. The series is classed as binding. The settings on record: read-out: ΔTm. The protocol: as §1

For another series, the target named is T12, PAK1 (Homo sapiens, UniProt Q13153).
T12 construct: purchased in-house DSF (thermal shift) panel per Fedorov et al
The series is described as follows: DSF thermal shift assay. The format is binding. The settings on record: read-out: ΔTm. As to the method: as §1

For another series, the target named is T13, DAPK1 (Homo sapiens, UniProt P53355).
T13 construct: purchased in-house DSF (thermal shift) panel per Fedorov et al
Kind of series: DSF thermal shift assay. The series is classed as binding. The settings on record: read-out: ΔTm. As to the method: as §1

For the next series, the target named is T14, MERTK (Homo sapiens, UniProt Q12866).
T14 construct: purchased in-house DSF (thermal shift) panel per Fedorov et al
T14 sequence (Q12866 21-999): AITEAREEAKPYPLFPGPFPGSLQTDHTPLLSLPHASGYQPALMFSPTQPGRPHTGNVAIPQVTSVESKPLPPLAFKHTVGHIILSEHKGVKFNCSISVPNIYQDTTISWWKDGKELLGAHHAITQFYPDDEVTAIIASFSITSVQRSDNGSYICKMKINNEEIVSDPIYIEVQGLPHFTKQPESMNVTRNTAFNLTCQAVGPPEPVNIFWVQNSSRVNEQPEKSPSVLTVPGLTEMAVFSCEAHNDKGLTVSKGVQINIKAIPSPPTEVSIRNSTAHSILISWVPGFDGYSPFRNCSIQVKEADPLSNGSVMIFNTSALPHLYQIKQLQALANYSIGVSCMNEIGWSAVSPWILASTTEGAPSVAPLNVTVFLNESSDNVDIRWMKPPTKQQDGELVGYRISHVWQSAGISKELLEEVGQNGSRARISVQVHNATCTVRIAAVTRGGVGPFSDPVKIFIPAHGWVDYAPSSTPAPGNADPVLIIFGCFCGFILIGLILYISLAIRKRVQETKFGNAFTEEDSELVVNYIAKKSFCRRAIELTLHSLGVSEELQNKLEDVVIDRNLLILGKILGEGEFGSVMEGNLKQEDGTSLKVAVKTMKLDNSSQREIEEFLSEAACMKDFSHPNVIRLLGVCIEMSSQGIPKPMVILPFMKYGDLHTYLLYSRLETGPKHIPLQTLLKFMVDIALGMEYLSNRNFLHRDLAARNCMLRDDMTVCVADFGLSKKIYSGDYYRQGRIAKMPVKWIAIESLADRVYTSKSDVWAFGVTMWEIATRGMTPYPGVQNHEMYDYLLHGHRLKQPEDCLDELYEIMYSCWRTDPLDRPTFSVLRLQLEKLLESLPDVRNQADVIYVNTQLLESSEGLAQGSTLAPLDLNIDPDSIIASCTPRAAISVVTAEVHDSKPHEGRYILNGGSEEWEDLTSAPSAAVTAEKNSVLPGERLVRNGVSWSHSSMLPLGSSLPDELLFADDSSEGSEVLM
Kind of series: DSF thermal shift assay. The format is binding. The settings on record: read-out: ΔTm. As to the method:
as §1

The target of a further series is T15, MAPK6 (Homo sapiens, UniProt Q16659).
T15 construct: purchased in-house DSF (thermal shift) panel per Fedorov et al
Kind of series: DSF thermal shift assay. The series is classed as binding. The settings on record: read-out: ΔTm. As to the method: as §1

A further series deals with T16, WNK1 (Homo sapiens, UniProt Q9H4A3).
T16 construct: purchased in-house DSF (thermal shift) panel per Fedorov et al
The series is described as follows: DSF thermal shift assay. The settings on record: read-out: ΔTm. The series is classed as binding. The protocol: as §1

In the next series the target is T17, NEK2 (Homo sapiens, UniProt P51955).
T17 construct: purchased in-house DSF (thermal shift) panel per Fedorov et al
Kind of series: DSF thermal shift assay. The format is binding. The settings on record: read-out: ΔTm. The protocol: as §1

The next series has as its target T18, EPHB3 (Homo sapiens, UniProt P54753).
T18 construct: purchased in-house DSF (thermal shift) panel per Fedorov et al
Kind of series: DSF thermal shift assay. The series is classed as binding. The settings on record: read-out: ΔTm. As to the method:
as §1

Another series deals with T19, RPS6K5 (Homo sapiens, UniProt O75582).
T19 construct: purchased in-house DSF (thermal shift) panel per Fedorov et al
The series is described as follows: DSF thermal shift assay. The series is classed as binding. The settings on record: read-out: ΔTm. The protocol:
as §1

The target in the next series is T20, STK10 (Homo sapiens, UniProt O94804).
T20 construct: purchased in-house DSF (thermal shift) panel per Fedorov et al
The series is described as follows: DSF thermal shift assay. The format is binding. The settings on record: read-out: ΔTm. The protocol:
as §1

A further series deals with T21, DCAMKL1 (Homo sapiens, UniProt O15075).
T21 construct: purchased in-house DSF (thermal shift) panel per Fedorov et al
Kind of series: DSF thermal shift assay. The series is classed as binding. The settings on record: read-out: ΔTm. The protocol: as §1

In another series the test system is S6K1. The settings on record: cited from earlier work.
Series [2] deals with S6K2. Set-up: method as in PMID 20704563. The settings on record: cited from earlier work.
Series [3] is described as follows: Glutathione (GSH) stability assay (HPLC). The settings on record: glutathione (GSH, 5 mM) in MeCN/PBS buffer.
Experimental: The reaction temperature was chosen to be 40 °C.
Glutathione (GSH) Stability Assay
• 0 min: 40% MeOH, 60% phosphate buffer pH 2.3;
• 20 min: 85% MeOH, 15% phosphate buffer pH 2.3;
• 9 min: 95% MeOH, 5% phosphate buffer pH 2.3;
• 10 min: 95% MeOH, 5% phosphate buffer pH 2.3;

T18 sequence (P54753 34-998): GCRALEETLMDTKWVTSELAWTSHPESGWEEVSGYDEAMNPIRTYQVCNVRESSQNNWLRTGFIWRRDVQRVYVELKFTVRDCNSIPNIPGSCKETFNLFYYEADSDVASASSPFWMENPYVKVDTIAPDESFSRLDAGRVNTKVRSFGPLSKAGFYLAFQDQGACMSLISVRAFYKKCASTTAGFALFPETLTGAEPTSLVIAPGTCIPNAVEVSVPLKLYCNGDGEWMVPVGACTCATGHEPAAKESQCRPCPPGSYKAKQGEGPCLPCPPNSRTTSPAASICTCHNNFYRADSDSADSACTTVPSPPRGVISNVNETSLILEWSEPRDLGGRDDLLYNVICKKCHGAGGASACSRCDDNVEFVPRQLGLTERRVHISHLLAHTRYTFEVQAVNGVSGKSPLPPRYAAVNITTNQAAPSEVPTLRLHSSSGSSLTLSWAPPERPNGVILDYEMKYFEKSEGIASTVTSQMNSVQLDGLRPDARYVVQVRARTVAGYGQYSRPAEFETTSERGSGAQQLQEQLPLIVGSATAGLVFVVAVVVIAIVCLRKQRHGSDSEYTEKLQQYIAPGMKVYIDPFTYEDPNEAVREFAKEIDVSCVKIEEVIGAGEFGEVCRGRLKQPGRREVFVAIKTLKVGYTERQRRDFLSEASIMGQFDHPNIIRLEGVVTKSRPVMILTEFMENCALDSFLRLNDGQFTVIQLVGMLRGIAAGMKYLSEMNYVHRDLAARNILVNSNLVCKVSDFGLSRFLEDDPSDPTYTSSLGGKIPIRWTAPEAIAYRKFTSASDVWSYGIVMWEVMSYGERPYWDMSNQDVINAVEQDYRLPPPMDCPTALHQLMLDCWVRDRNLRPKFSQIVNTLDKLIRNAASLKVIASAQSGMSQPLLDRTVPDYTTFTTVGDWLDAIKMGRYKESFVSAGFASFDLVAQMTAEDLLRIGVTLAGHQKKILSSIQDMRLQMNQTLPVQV

A word on the IC50: it is the concentration that inhibits the measured activity by half. As to `CCc1cnc(Nc2ncccc2[N+](=O)[O-])nc1N1CCN(Cc2nc3cc(C(F)(F)F)ccc3[nH]2)CC1` [Compound 21], the IC50 at S6K2 [1] is above 5000 nM.

The ΔTm is the shift of the melting midpoint relative to a reference. With `CN[C@@H]1C[C@H]2O[C@@](C)([C@@H]1OC)n1c3ccccc3c3c4c(c5c6ccccc6n2c5c31)C(=O)NC4` [Staurosporine, reference compound], the thermal shift (ΔTm) at 10 µM on OSR1 was 7.6 °C; on PLK4, 19 °C; on STK39, 9.3 °C; at CAMK4 it was 8.9 °C; on CAMKK2, 25.1 °C; at MAPK13, 6.2 °C. Further, the ΔTm at 10 µM was found to be 20.8 °C on SLK; 2.2 °C at CDC42BPA; 12.7 °C on EPHA7; 14.8 °C at STK3; 7.4 °C at PAK1; 9.6 °C on DAPK1. Besides, the ΔTm at 10 µM at MERTK was 5.9 °C; at MAPK6, 1 °C; on WNK1 it was 1.4 °C; on NEK2, 2.2 °C; at EPHB3 it was 6.7 °C; at RPS6K5, 15 °C. Further, the ΔTm at 10 µM at STK10 was determined as 24.4 °C; at DCAMKL1, 6.3 °C.

The Ki is a measure of affinity in units of concentration, obtained from inhibition or displacement. As to `CCc1cncnc1N1CCN(Cc2nc3ccc(C(F)(F)F)cc3[nH]2)CC1` [PF-4708671], the IC50 was 160 nM in the series with S6K1 and 65000 nM with S6K2 [2]. Besides, the Ki on S6K1 is 20 nM.

The half-life is how long it takes for the measured level to halve. A low value points to fast loss. As to `CN(C)C/C=C/C(=O)Nc1cc2c(Nc3ccc(F)c(Cl)c3)ncnc2cc1O[C@H]1CCOC1` [Afatinib], the half-life at […] in [3] was 5 h.
